In patent US11352374B2 (University of Alaska Anchorage, priority 2015, dated 2022):
Values joined by “and” are separate entries in the source; they are usually repeats but may differ in a detail not shown here. Equal entries are not always repeated. Where two headings read alike, the source gives them in different places.

What was measured:
[1] = CO released in the presence of H2O2, CO meter; format: physicochemical; details: for CO released with 3 equivalents H2O2: 3 equivalents H2O2, 12 hours at 37° C. (FIG. 9); for Rate of % CO released by CORCBs, With H2O2: H2O2 equivalents not given
Protocol: (§1) A test to confirm that CO is one of the decomposition products from CORCBs is done by utilizing commercially available CO meter. Four mole of the compounds at the concentrations of 6-12 mg/mL in aqueous solution was incubated at 37° C. in a sealed vessel with 50 mL gas space. CO meter was used to read the concentration of liberated CO gas from the solution. Measurement by CO meter in ppm, after converting to the micromole amount, was used for calculating the percent CO released based on the original amount of compound.
(§2) The two tested are the common ROS formed naturally in the cells—a non-radical hydrogen peroxide (H2O2) and Fenton reagent which is a more reactive hydroxyl radical (.OH) formed from Fe^2+ and H2O2. Four mole of CORCB compounds were mixed in an aqueous solution with ROS and incubated in a sealed vessel. At respective times, the head space air was injected into the meter to read the amount of CO produced. For analysis by NMR spectroscopy, the reaction mixture was prepared in NMR tube in D2O solvent and incubated for the amount of time indicated.

[2] = CO released in the presence of Fenton reagent (hydroxyl radical), CO meter; format: physicochemical; details: per 5 minutes
Protocol: as §1
as §2, with “All amine carboxyboranes express a faster CO release rate when incubated with the reactive oxygen species. The” for “The”, “indicated. While some CORCBs have increased amount of CO produced when treated with 3 times equivalents of H2O2, CORCB-1 produces similar or less amount of CO. In every sample, either acid or salt form, the hydroxyl radical extracts the amount of CO to a much higher magnitude within a very short amount of time.” for “indicated.”

[3] = Decomposition (amine release) in the presence of H2O2 monitored by 1H NMR; format: physicochemical; details: for Decomposition rate at 24 hours, 1H NMR, With 1.5x H2O2: 1.5 equivalents H2O2, 37° C.
Protocol: as §2
The reaction with H2O2 is slow-acting, therefore, NMR spectroscopy can be used for monitoring the rate.

physchem = details: for CO release rate relative to CORCB-1: acid forms; for auto-decomposition of salts (in words): salts in D2O
Protocol: The kinetics of compound decomposition was followed by observing the ratio of the amount of free amine group to the original compound using ^1H NMR. For instance, Hexamethylenetetramine carboxyborane (CORCB-1) in D2O at the concentration of 12 mg/mL was incubated at 37° C. in the standard NMR tube. ^1H NMR spectra were obtained at different time points to study the kinetics of product formation. […] The ratio of integrated peaks were used for determining the percent of each species present and plotted as a function of time to show the kinetics of auto-decomposition.
^1H, ^11B, and ^13C NMR spectra were recorded at different time points to study the kinetics as well as to observe transformation of CORCB-1 into the products.
In order to determine whether CO is produced in physiological condition, CORCB acid forms were dissolved in aqueous solution at neutral pH. The solution was then subjected to incubation at 37° C. for extended period of time. For studies using NMR, CORCBs were dissolved in D2O. The kinetics of CORCB molecules breaking down to produce CO is determined by taking ^1H NMR spectra at various time points (FIG. 3).
CORCB sodium and ammonium salts were also tested for decomposition by using ^1H NMR spectroscopy. Samples were set up as in Example 1 and rate of decomposition measured (FIG. 4).

[4] = CO released on auto-decomposition in water at 37° C., head space measured with CO meter; format: physicochemical; details: for CO release rate at 24 hours, CO meter, Autodecomposition / % CO liberated at 24 hours by CO meter / CO release (in words), CO meter: 37° C., 24 hours; for Rate of % CO released by CORCBs, Autodecomposition / Rate of % CO released by CORCB sodium salts, Autodecomposition: per 24 hour
Protocol: as §1
CO liberated from the molecules and coming out to the head space are detected and quantified by using CO meter.

[5] = test system: fibroblast tumor cells (Hs 895.T) and normal fibroblast cells (Hs 895.Sk); details: human, 48 h, 1 mM
Protocol: (§3) Cells were seeded at the density of 3×10^3 cells per well in 96-well plate with different concentrations of CORCBs in DMEM media without FBS, and incubated at 37° C. with 5% CO2 for 2 days.

RAW264.7 cells = assay: Cytotoxicity / cell viability, Cell Titer Blue assay
Protocol: To test the anti-inflammatory effect of CORCBs, mouse macrophage cells (RAW264.7) were used. 2×10^4 cells per well was seeded in 96-well plate with different concentrations of CORCBs. Cells were incubated in DMEM with 10% FBS at 37° C. and 5% CO2 for 24 hours. LPS (100 ng/mL) was then added and incubated for 4 additional hours. The media containing secreted inflammatory cytokines were collected and these cells were subjected to cell viability test to check their viability.
Cytotoxicity of CORCBs was tested with RAW264.7 cells using Cell Titer Blue assay. In brief, cells were seeded at the density of 2×10^4 cells per well in 96-well plate with different concentrations of CORCBs. Cells were incubated in DMEM with 10% FBS at 37° C. and 5% CO2 for 24 hours. Cell Titer Blue reagent was added into the wells and incubated for 4 more hours in the normal cell growth conditions. The fluorescence signal of the converted reagent resulted from the viable cells was measured.

[6] = Solubility in water / D2O; details: water or D2O
[7] = test system: normal fibroblast cells (Hs 895.Sk); assay: Cell viability in DMEM without FBS, Cell Titer Blue, normal cells; details: 2 mM, 48 hours
Protocol: as §3

[8] = test system: normal human skin fibroblast cells (Hs 895.Sk)
Protocol: This was tested by using a chemotherapy drug, imatinib, in normal human skin fibroblast cells (Hs 895.Sk). The cultures were treated with 20 μM and 40 μM concentration of imatinib as controls to see their toxicity. Samples with mixtures of CORCB-1 and imatinib were also incubated and cell viability was determined on 2, 4, and 6 days. Media was exchanged every 2 days with fresh reagents.

[9] = 24 hours, 1.5 equivalents H2O2, 37° C.

In the case of O=C(O)B[n+]1ccccc1, the “CO released with 3 equivalents H2O2” value [1] is reported as “about 10%”, the “CO release rate at 24 hours, CO meter, With 1.5x H2O2” value (“CO release rate … With 1.5x H2O2” below) [1, 9] is reported as 1.00% and the “Rate of % CO released by CORCBs, With H2O2” value ([1]; per 24 hour) is reported as 20.22 ± 0.35%. The “Rate of % CO released by CORCBs, With Fenton Reagent” value [2] was 72.64 ± 2.57%, the “Decomposition rate at 24 hours, 1H NMR, With 1.5x H2O2” value (from here on “Decomposition rate … With 1.5x H2O2”) [3] was 37.50% and the “Decomposition rate at 24 hours, 1H NMR, Autodecomposition” value (from here on “Decomposition rate … Autodecomposition”) (physchem; 37° C.) was 0.40%. The “CO release rate relative to CORCB-1” value (physchem; D2O, 37° C.) was “much slower CO release rates than CORCB-1”, the “CO release rate at 24 hours, CO meter, Autodecomposition” value (“CO release rate … Autodecomposition” for short) [4] was 3% and the “Rate of % CO released by CORCBs, Autodecomposition” value [4] was 2.99 ± 0.06%.

For CN1CCC[C@H]1c1ccc[n+](BC(=O)O)c1, the “CO release rate … With 1.5x H2O2” value [1] was 0.50%, the “Decomposition rate … With 1.5x H2O2” value [3] was 35.90% and the “% decomposed at 24 hours by 1H NMR” value (physchem; 37° C.) was 1.0%. The “Decomposition rate … Autodecomposition” value (physchem; 37° C.) was 1%, the “CO release rate relative to CORCB-1” value (physchem; D2O, 37° C.) was “much slower CO release rates than CORCB-1” and the “% CO liberated at 24 hours by CO meter” value [4] was 0.86%. The “CO release (in words), CO meter” value [4] was “much slower rate than the others” and the “CO release rate … Autodecomposition” value [4] was 0.86%.

In the case of NC12CC3CC(CC(C3)C1)C2 [Amantadine, reference compound], the “cells left (viability)” value [5] is reported as “about 20%”.

With CC(=O)Nc1ccc(OC(=O)B[N+]23CN4CN(CN(C4)C2)C3)cc1 [CORCB-1-TY, hexamethylenetetramine carboacetaminophenborane] the “% decomposed at 24 hours by 1H NMR” value (physchem; 37° C.) was 11.3%, the “Decomposition rate … Autodecomposition” value (physchem; 37° C.) was 11.30% and the “time to decompose to completion” value (physchem; D2O, 37° C.) was 12 days. The “% CO liberated at 24 hours by CO meter” value [4] was 12.3% and the “CO release rate … Autodecomposition” value [4] was 12.30%.

With C[N+](C)(C)[BH2-]C(=O)O [CORCB-3, trimethylamine carboxyborane] the “CO released with 3 equivalents H2O2” value [1] was “about 10%”, the “CO release rate … With 1.5x H2O2” value [1, 9] was 2.70% and the “Rate of % CO released by CORCBs, With H2O2” value ([1]; per 24 hour) was 18.73 ± 0.24%. The “Rate of % CO released by CORCBs, With Fenton Reagent” value [2] was 76.64 ± 1.33%, the “Decomposition rate … With 1.5x H2O2” value [3] was 44.50% and the “cytotoxicity / cell growth (in words)” value (RAW264.7 cells; 0.5-10 mM (up to 10 mM), 24 hours) was “not toxic at the levels tested”. The “cell viability after the TNF-α assay (in words)” value (RAW264.7 cells; same cells as TNF-α assay) was “all cells remain viable”, the “CO release rate relative to CORCB-1” value (physchem; D2O, 37° C.) was “much slower CO release rates than CORCB-1” and the rate of auto-decomposition (physchem; as stated in Example 10) was ~3 % per day. For the same compound, the “CO release (in words), CO meter” value [4] was “negligible” and the “Rate of % CO released by CORCBs, Autodecomposition” value [4] was 0.13 ± 0.01%.

With C[C@]12CC3CC([NH2+][BH2-]C(=O)O)(C1)C[C@@](C)(C3)C2 [CORCB-4, memantine carboxyborane] the solubility in water [6] was “low solubility in water”, the “Decomposition rate … Autodecomposition” value (physchem; 37° C.) was “not soluble” and the “CO release rate … Autodecomposition” value [4] was “not soluble”.

For OO [H2O2, hydrogen peroxide, reference compound], the viability (RAW264.7 cells; 1 mM, after 24 hours, untreated cells = 100%) was 44%.

For C1N2CN3CN1CN(C2)C3 [HMTA, hexamethylenetetramine, reference compound], the “cytotoxicity at 2 mM (in words)” value (RAW264.7 cells; 2 mM, 24 hours) was “most cells losing viability”.

In the case of N.O=C(O)[BH2-][N+]12CN3CN(CN(C3)C1)C2 [NH4-CORCB-1], the “Decomposition rate … Autodecomposition” value (physchem; 37° C.) is reported as 26.40% and the “CO release rate … Autodecomposition” value [4] is reported as 28.70%.

For N.O=C(O)[BH2-][n+]1ccccc1 [NH4-CORCB-2], the “Decomposition rate … Autodecomposition” value (physchem; 37° C.) was 0.03% and the “CO release rate … Autodecomposition” value [4] was “not measurable”.

In the case of CC12CC3CC(C)(C1)CC([NH2+][BH2-]C(=O)O)(C3)C2.N [NH4-CORCB-4], the solubility in water [6] is reported as “soluble in water”, the “Decomposition rate … Autodecomposition” value (physchem; 37° C.) is reported as 12.80% and the “decomposition in 12 days” value (physchem; ammonium salt, 12 days, 37° C.) is reported as “about 13%”. The “CO release rate … Autodecomposition” value [4] was “not soluble”.

In the case of O=C([O-])[BH2-][N+]12CN3CN(CN(C3)C1)C2.[Na+] [Na-CORCB-1], the “Rate of % CO released by CORCB sodium salts, With H2O2” value [1] is reported as 11.99 ± 0.19%, the “Rate of % CO released by CORCB sodium salts, With Fenton Reagent” value [2] is reported as 41.61 ± 0.57% and the “% decomposed at 24 hours by 1H NMR” value (physchem; 37° C.) is reported as 33.1%. For the same compound, the “Decomposition rate … Autodecomposition” value (physchem; 37° C.) was 33.20%, the “% CO liberated at 24 hours by CO meter” value [4] was 33% and the “CO release rate … Autodecomposition” value [4] was 33.10%. For the same compound, the “Rate of % CO released by CORCB sodium salts, Autodecomposition” value [4] was 33.12 ± 0.33%.

With O=C([O-])[BH2-][n+]1ccccc1.[Na+] [Na-CORCB-2] the “Rate of % CO released by CORCB sodium salts, With H2O2” value ([1]; sodium salts, per 24 hour) was 12.66 ± 0.21%, the “Rate of % CO released by CORCB sodium salts, With Fenton Reagent” value [2] was 43.46 ± 0.73% and the “Decomposition rate … Autodecomposition” value (physchem; 37° C.) was 0.46%. For the same compound, the “CO release rate … Autodecomposition” value [4] was 0.36% and the “Rate of % CO released by CORCB sodium salts, Autodecomposition” value [4] was 0.36 ± 0.13%.

For C[N+](C)(C)[BH2-]C(=O)O [Na-CORCB-3], the “Rate of % CO released by CORCB sodium salts, With H2O2” value ([1]; sodium salts, per 24 hour) was 7.41 ± 0.16%, the “Rate of % CO released by CORCB sodium salts, With Fenton Reagent” value [2] was 33.46 ± 0.90% and the “Decomposition rate … Autodecomposition” value (physchem; 37° C.) was “not measurable”. The “auto-decomposition of salts (in words)” value (physchem; 37° C.) was “insignificant amounts of decomposition”, the “CO release rate … Autodecomposition” value [4] was “not measurable” and the “Rate of % CO released by CORCB sodium salts, Autodecomposition” value [4] was 0.14 ± 0.02%.

In the case of CC12CC3CC(C)(C1)CC([NH2+][BH2-]C(=O)[O-])(C3)C2.[Na+] [Na-CORCB-4, Memantinecarboxyborane sodium salt], the “% CO produced by CO meter with H2O2” value ([1]; 1.5 equivalents H2O2, 24 hours) is reported as 1.6%, the “CO release rate … With 1.5x H2O2” value [1, 9] is reported as 1.60% and the “% decomposition / free amine released by 1H NMR with H2O2” value ([3]; 1.5 equivalents H2O2, 24 hours, sodium salt) is reported as 96.4% and ~100%. For the same compound, the “Decomposition rate … With 1.5x H2O2” value [3] was 96.40%, the solubility in water [6] was “soluble in water” and the “Decomposition rate … Autodecomposition” value (physchem; 37° C.) was “not measurable”. For the same compound, the “auto-decomposition of salts (in words)” value (physchem; 37° C., listed as Sodium salt of CORCB-4, sodium salt) was “insignificant amounts of decomposition”, the “auto-decomposition of salts (in words)” value (physchem; 37° C., listed as sodium salt of CORCB-4, sodium salt) was “does not decompose in measurable amount” and the “CO release rate … Autodecomposition” value [4] was 0.06%.

With O=C([O-])[BH2-][NH2+]C12CC3CC(CC(C3)C1)C2.[Na+] [Na-CORCB-6, Amantadine carboxyborane sodium salt] the “CO release rate … With 1.5x H2O2” value [1, 9] was 0.80%, the “Decomposition rate … With 1.5x H2O2” value [3] was 36.90% and the “viability of normal fibroblast cells (in words)” value [7] was “increasing the percent viability of normal fibroblast cells”. The “Decomposition rate … Autodecomposition” value (physchem; 37° C.) was “not measurable” and the “CO release rate … Autodecomposition” value [4] was 0.16%.

For Cc1ccc(NC(=O)c2ccc(CN3CCN(C)CC3)cc2)cc1Nc1nccc(-c2cccnc2)n1 [imatinib], the “cell viability with 20 μM imatinib (in words)” value ([8]; 20 μM, by 6 days) was “killed” and the “cell viability with 40 μM imatinib (in words)” value ([8]; 40 μM, at 4 days) was “lose their viability”.
